Data as given in US5919803A, “3-benzylamino-2-phenylpiperidines as neurokinin antagonists” (Glaxo Group Limited, priority 1995, dated 1999).

Test system: radiation-induced emesis in the ferret
Assay: radiation-induced emesis in the ferret
Assay type: in vivo
Settings: 0.1 mg/kg s.c., compound administered 1.5 hours prior to irradiation (whole body, 2 Grey)
Procedure: In this model of emesis the onset of retching and vomiting occurs approximately 20 minutes after whole body irradiation (2 Grey=200 Rads). The test compound is administered (e.g. i.p, p.o., i.v., s.c) immediately after irradiation and its effect on emesis determined by comparison with appropriate controls. […] Alternatively, the test compounds may be administered before irradiation or before treatment with an emetogen, for example 1.5, 3 or 6 hours before irradiation.

CCOc1ccc(-n2nnnc2C(F)(F)F)cc1CN[C@H]1CCCN[C@H]1c1ccccc1.Cl.Cl [Example 1, [2-Ethoxy-5(5-trifluoromethyl-tetrazol-1-yl)-benzyl]-([2S,3S]-2-phenylpiperidine-3-yl)amine dihydrochloride]
inhibition of radiation-induced emesis: inhibited radiation-induced emesis
